Series [1] deals with T1, PaIspD (Pseudomonas aeruginosa, UniProt P57707).
T1 construct: His6 (N, cleaved yes); made in house; host or cells: Escherichia coli BL21 (DE3), pET28
T1 sequence (P57707 1-234): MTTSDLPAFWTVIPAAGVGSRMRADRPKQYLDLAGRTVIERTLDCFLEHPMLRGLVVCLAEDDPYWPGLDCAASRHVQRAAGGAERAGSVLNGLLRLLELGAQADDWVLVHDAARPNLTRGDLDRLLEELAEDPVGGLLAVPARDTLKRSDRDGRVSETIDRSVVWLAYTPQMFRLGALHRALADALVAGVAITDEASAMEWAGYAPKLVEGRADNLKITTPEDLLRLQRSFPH
Description: Determination of enzyme kinetics (Michaelis constants of substrates, LC-MS). Format: biochemical. The note with it: substrate of PaIspD; 50 nM PaIspD, 37 °C, 40 minutes. On the procedure:
(§1) Determination of enzyme kinetics
(§2) Table S1. Michaelis constants for MEP and CTP of PaIspD.
(§3) Substrate Km (mM) Vmax (AU/min-1)
(§4) Determination of enzyme kinetics. The assay was conducted as published before. To determine the Km values for CTP and MEP with PaIspD, substrate concentrations (0.016–2 mM) were prepared in a 96-well plate. Each well contained 100 μL of reaction mix with Buffer A (100 mM Tris-HCl pH 7.6, 1 mM DTT, 1 mM MgCl2) and 50 nM PaIspD. Serial dilutions of CTP or MEP were performed, and reactions were initiated by adding Buffer B (100 mM Tris-HCl pH 7.6, 1 mM DTT, 1 mM MEP or CTP). Plates were incubated at 37 °C for 40 minutes, denatured at 95 °C for 5 minutes, and centrifuged at 4000 rpm at 4 °C. Supernatants (10 μL) were mixed with an 190 μL ice-cold 3:1:1 ACN, isopropanol, water mixture containing 100 nM 4-methyl-1-oxo-1-(p-tolylamino)pentane-2-sulfonic acid, adenylyl-imidodiphosphate and adenosine-5′- [(α,β)-methyleno]triphosphate as internal standard. After centrifugation at 4000 rpm at 4 °C for 5 min, a 50 μL aliquot was transferred to an LC-MS plate for analysis. Peak areas were used to calculate Michaelis–Menten kinetics using GraphPad Prism v9. Measurements were done in duplicates and repeated in two independent experiments.
Figure S1: Kinetic parameters of PaIspD substrates (MEP, left and CTP, right). Each data point reflects the mean ± SD obtained from two-independent […]

Series [2] concerns the target T1, PaIspD. Description: Fluorescence quenching (PaIspD). The format is binding. On the procedure:
Fluorescence quenching (PaIspD)
Quenching is expressed as (I0 – I) / I0 with I0 the intensity (at 332 nm) of fluorescence in absence of compound and I the intensity of fluorescence upon addition of compound. Inset, fluorescence emission spectra in the presence of increasing concentrations of compound. The concentration of PaIspD was kept at 2 µM during the assay, the compounds were tested in concentration ranges given below. The excitation wavelength was set at 286 nm, emission spectra were recorded between 300 nm and 380 nm. The data were fitted using Qtiplot software (qtiplot.com). A least square fit to a simple bimolecular equilibrium was used to estimate the Kd values. Each measurement was reproduced two times. The measurements were carried out in the following buffer: 50 mM Tris-Cl pH = 8, 50 mM NaCl, 1mM MgCl2.
Table S1. Concentration ranges used to determine Kd during the Fluorescence quenching assay.

Series [3] concerns the target T1, PaIspD. Description: 1H-STD NMR and competition STD NMR with CTP. Format: binding. The text has this:
To further validate the occurrence of interactions taking place between the fragment and PaIspD, we referred to ^1H‐STD NMR spectroscopy, a commonly used technique for this purpose.[10, 11] We conducted this experiment in a HEPES buffer in D2O with a 100‐fold excess of 2 compared to PaIspD. In the corresponding difference spectrum, we identified all proton signals previously observed in the ^1H NMR spectrum of 2 (see Figure S2 and S3 in the Supporting Information). […] We further noted the magnitude of amplification of the signals as the efficiency of saturation transfer scales with distance, enabling us to gain an idea about the proximity of each proton to the protein surface.[12] Among all protons, those in position iii (Figure 4) clearly received a surplus in saturation transfer relative to the other ones, whereas the protons positioned on the pyridyl ring (i, Figure 4) and the protons in position ii (Figure 4) received both less amplification with the latter receiving the least amount (Figure 4). […]
The 1H-STD-NMR experiment was recorded at 25 °C with 512 scans on a Bruker Avance Neo 500 MHz spectrometer with prodigy cryoprobe system. […]

Series [4] concerns the target T1, PaIspD. Description: Microscale thermophoresis (MST) with dyed PaIspD. The format is binding. On the procedure:
The microscale thermophoresis (MST) (Serial no. 201709-BR-N024, Monolith NT.115 Micro Scale Thermophoresis, NanoTemper Technologies GmbH.) was performed using dyed PaIspD, labeled according to the standard protocol from the manufacturer NanoTemper Technologies GmbH Protein Labeling Kit Red-NHS, 2nd Generation. A 2 mM ligand solution containing 10% DMSO was prepared (Solution I). A 200 µl solution of 10% DMSO containing buffer solution was prepared (Solution II). The buffer used was HEPES (50 mM), MgCl2 (5 mM) and Tween (0.05%) at pH 7.6 for all compounds. To PCR tubes 2-16, 10 µl of solution II was added. To tube 1, 20 µl of solution I was added. 10 µl from tube 1 was add to tube 2 and mixed. This was continued until tube 16. To each tube, 10 µL of the protein dye mixture was added and mixed. The mixture was allowed to incubate at room temperature for 5 minutes. Non-hydrophobic capillary tubes were used for measurement. Each sample was measured and analyzed in MO Control version 1.6.
(Microscale thermophoresis detects binding through changes in fluorescence in a small temperature gradient.)

Substrate in series [5]: C[C@](O)(CO)[C@H](O)COP(=O)(O)O
Description: Determination of enzyme kinetics (Michaelis constants of substrates, LC-MS). The format is biochemical, Pseudomonas aeruginosa. Conditions: other: substrate of PaIspD, 50 nM PaIspD, 37 °C, 40 minutes, pH 7.6. On the procedure:
as §1, §2, §3, §4
Figure S1: Kinetic parameters of PaIspD substrates (MEP, left and CTP, right). […]

Setting [6] is: -log KD, supplement sheet, CORRECTED VALUES.
The mark [7] stands for this setting: -log KD, supplement sheet, PUBLISHED VALUES.
Where [8] appears, read: kd (M), supplement sheet, CORRECTED VALUES.
Setting [9] is: kd (µM), supplement sheet, CORRECTED VALUES, MST Kd.
Setting [10] is: supplement sheet, CORRECTED VALUES.
Where [11] appears, read: supplement sheet, PUBLISHED VALUES.
Setting [12] is: MST Kd, n=2, mean±SD, HEPES 50 mM, MgCl2 5 mM, Tween 0.05%, pH 7.6.

What is called Km is the concentration of substrate that gives half-maximal velocity. One may read the Kd as a measure of binding affinity in units of concentration.

For `Nc1ccn([C@@H]2O[C@H](COP(=O)(O)OP(=O)(O)OP(=O)(O)O)[C@@H](O)[C@H]2O)c(=O)n1` [CTP], in series [1], the Km turned out to be 200 ± 100 µM and the Vmax was determined as 0.30 ± 0.01 AU/min-1.

As to `CN1Cc2cccnc2C1=O` [Compound 2], the Kd was 977 ± 59 µM in series [2]; 0.000939 M in series [4] (setting [6]); 0.000939 M in series [4] (setting [7]); 0.000939 M in series [4] (setting [8]); 0.000939 M in series [4] (setting [9]). In addition, the “Competition STD NMR with CTP” value in series [3] (1 mM 2, 10 mM CTP, 10 µM PaIspD) was “STD signals of 2 disappeared”. Moreover, the “1H-STD NMR interaction with PaIspD” value in series [3] (HEPES buffer in D2O, 100-fold excess of 2 compared to PaIspD) is recorded as “came into close proximity of the protein”. Moreover, the LE in series [4] (setting [10]) came out at 0.377. Also, the LLE in series [4] (setting [11]) is -1.358.

`CN1CCC(N2Cc3cccnc3C2=O)CC1` [Compound 3]: the Kd in series [2] was 879 ± 64 µM; in series [4] (setting [6]), 0.000186 M; in series [4] (setting [7]), 0.000186 M; in series [4] (setting [12]) it was 0.000186 ± 7e-06 M; in series [4] (setting [8]), 0.000186 M; in series [4] (setting [9]), 0.000186 M. Further, the LE in series [4] (setting [10]) is on record as 0.3006. In series [4] (setting [11]), the LLE is given as -0.7773.

Regarding `O=C1c2ncccc2CN1Cc1ccccc1` [Compound 4], the Kd in series [2] is 391 ± 35 µM; in series [4] (setting [6]), 0.000133 M; in series [4] (setting [7]) it was 0.000133 M; in series [4] (setting [12]) it was 0.000133 ± 1.2e-05 M; in series [4] (setting [8]), 0.000133 M; in series [4] (setting [9]) it was 0.000133 M. This molecule showed an LE in series [4] (setting [10]) of 0.3124. The molecule also came in with an LLE in series [4] (setting [11]) of -0.9699.

In the case of `O=C1c2ncccc2CN1CCN1CCOCC1` [Compound 5], the Kd in series [4] (setting [6]) was 0.000491 M; in series [4] (setting [7]) it was 0.000491 M; in series [4] (setting [12]) it was 0.000491 ± 2e-06 M; in series [4] (setting [8]), 0.000491 M; in series [4] (setting [9]), 0.000491 M. The molecule also displayed an LE in series [4] (setting [10]) of 0.2518. In series [4] (setting [11]), the LLE was -0.7374.

As to `O=C1c2ncccc2CN1CCc1c[nH]c2ccccc12` [Compound 6], the dissociation constant Kd in series [2] was 332 ± 22 µM; in series [4] (setting [6]), 0.000208 M; in series [4] (setting [7]), 0.000208 M; in series [4] (setting [12]) it was 0.000208 ± 7e-06 M; in series [4] (setting [8]) it was 0.000208 M; in series [4] (setting [9]) it was 0.000208 M. The LE in series [4] (setting [10]) turned out to be 0.2402. For the same molecule, in series [4] (setting [11]), the LLE is -0.7939.

Consider `COC(=O)N(C)C1c2cccnc2C(=O)N1C` (centres unmarked) [Compound 7], for which the Kd in series [4] (setting [6]) is 0.000454 M; in series [4] (setting [7]), 0.000454 M; in series [4] (setting [12]), 0.000454 ± 2.7e-05 M; in series [4] (setting [8]), 0.000454 M; in series [4] (setting [9]) it was 0.000454 M. Besides, the LE in series [4] (setting [10]) amounted to 0.2694. Besides, in series [4] (setting [11]), the LLE was -0.728.

`CCC(=O)N(C)C1c2cccnc2C(=O)N1C` (centres unmarked) [Compound 8]: the Kd in series [2] was found to be 248 ± 15 µM.

As for `CCC(CC)C(=O)N(C)C1c2cccnc2C(=O)N1C` (centres unmarked) [Compound 9], the Kd was 0.000536 M in series [4] (setting [6]); 0.000536 M in series [4] (setting [7]); 0.000536 ± 4.7e-05 M in series [4] (setting [12]); 0.000536 M in series [4] (setting [8]); 0.000536 M in series [4] (setting [9]). In series [4] (setting [10]), this molecule returned an LE of 0.2241. The same molecule returned an LLE in series [4] (setting [11]) of -0.9347.

With `CN(C(=O)c1ccncc1)C1c2cccnc2C(=O)N1C` (centres unmarked) [Compound 10], the Kd in series [2] was 310 ± 28 µM; in series [4] (setting [6]), 0.000209 M; in series [4] (setting [7]), 0.000209 M; in series [4] (setting [12]), 0.000209 ± 4e-06 M; in series [4] (setting [8]) it was 0.000209 M; in series [4] (setting [9]), 0.000209 M. This molecule had an LE in series [4] (setting [10]) of 0.2401. The molecule also showed an LLE in series [4] (setting [11]) of -0.6357.

Consider `CN(C(=O)c1ccon1)C1c2cccnc2C(=O)N1C` (centres unmarked) [Compound 11], for which the Kd was 301 ± 16 µM in series [2]; 0.000502 M in series [4] (setting [6]); 0.000502 M in series [4] (setting [7]); 0.000502 ± 5.6e-05 M in series [4] (setting [12]); 0.000502 M in series [4] (setting [8]); 0.000502 M in series [4] (setting [9]). Further, the LE in series [4] (setting [10]) was 0.226. In addition, the LLE in series [4] (setting [11]) is reported as -0.6167.

With `CN1C(=O)c2ncccc2C1N(C)C(=O)N1CCOCC1` (centres unmarked) [Compound 12], the Kd in series [2] is 371 ± 42 µM; in series [4] (setting [6]) it was 0.000239 M; in series [4] (setting [7]), 0.000239 M; in series [4] (setting [12]), 0.000239 ± 6e-06 M; in series [4] (setting [8]), 0.000239 M; in series [4] (setting [9]) it was 0.000239 M. This molecule yielded an LE in series [4] (setting [10]) of 0.2363. In series [4] (setting [11]), the LLE is -0.5431.

Turning to `C[C@](O)(CO)[C@H](O)COP(=O)(O)O` [MEP, 2‐C‐methylerythritol‐D‐erythritol‐4‐phosphate], in series [1], the Vmax worked out at 0.30 ± 0.0 AU/min-1.

B1: PaIspD (Pseudomonas aeruginosa PAO1) (protein)
chain: MTTSDLPAFWTVIPAAGVGSRMRADRPKQYLDLAGRTVIERTLDCFLEHPMLRGLVVCLAEDDPYWPGLDCAASRHVQRAAGGAERAGSVLNGLLRLLELGAQADDWVLVHDAARPNLTRGDLDRLLEELAEDPVGGLLAVPARDTLKRSDRDGRVSETIDRSVVWLAYTPQMFRLGALHRALADALVAGVAITDEASAMEWAGYAPKLVEGRADNLKITTPEDLLRLQRSFPH
notes: His6 (N, cleaved yes); made in house; host or cells: Escherichia coli BL21 (DE3), pET28
As to B1, the Km in series [5] worked out at 210 ± 100 µM.

Values taken from publication PMC11796317, “Fragment Discovery by X‐Ray Crystallographic Screening Targeting the CTP Binding Site of Pseudomonas Aeruginosa IspD” (Angewandte Chemie (International Ed. in English), 2025).
